Results from ChEMBL document CHEMBL3112526, “20S proteasome as novel biological target for organochalcogenanes” (Eur J Med Chem, 2014).
Activity calls are given as the source filed them. The calls are words filed in the database; no cut-off is given here.

Assays:
[1] = Chemical stability of the compound under aqueous condition; format: physicochemical; conditions: buffer
[2] = Cytotoxicity against mouse NIH/3T3 cells assessed as cell viability at 1 to 40 umol/L after 2 hrs by MTT assay; format: cell-based, NIH3T3; conditions: read-out: Activity
[3] = (§1) Cytotoxicity against mouse NIH/3T3 cells assessed as cell viability at 80 umol/L after 2 hrs by MTT assay; format: cell-based, NIH3T3; conditions: NIH/3T3 cells, read-out: Activity
[4] = molecular target: Proteasome subunit beta type-2 (Mus musculus) (UniProt Q9R1P3); assay: Inhibition of trypsin like activity of beta2-20S proteasome in mouse NIH-3T3 cells at 2 times IC50; format: cell-based; conditions: NIH3T3
Sequence of Proteasome subunit beta type-2 (Mus musculus) (Q9R1P3 whole entry): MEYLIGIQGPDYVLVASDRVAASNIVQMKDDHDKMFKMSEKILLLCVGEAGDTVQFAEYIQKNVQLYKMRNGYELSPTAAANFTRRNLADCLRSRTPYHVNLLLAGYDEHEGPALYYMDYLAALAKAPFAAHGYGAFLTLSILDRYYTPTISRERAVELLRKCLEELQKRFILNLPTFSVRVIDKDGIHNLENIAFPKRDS

[5] = Inhibition of horse erythrocytes trypsin like activity of beta2-20S proteasome using z-ARR-AMC as substrate measured for 60 mins by fluorescence assay; set-up: species or system Equus caballus
Saccharomyces cerevisiae = assay: Inhibition of yeast 20S proteasome
Equus caballus [6] = species on record: Equus caballus; assay: Inhibition of horse erythrocytes trypsin like activity of beta2-20S proteasome using z-ARR-AMC as substrate at 100 uM measured for 60 mins by fluorescence assay
Equus caballus [7] = species on record: Equus caballus; assay: Inhibition of horse erythrocytes chymotrypsin like activity of beta5-20S proteasome using suc-LLVY-AMC as substrate at 100 uM measured for 60 mins by fluorescence assay
Equus caballus [8] = species on record: Equus caballus; assay: Inhibition of horse erythrocytes caspase like activity of beta1-20S proteasome using z-LLE-AMC as substrate at 100 uM measured for 60 mins by fluorescence assay
[9] = Chemical stability of the compound under aqueous condition assessed as drug transformation; format: physicochemical; conditions: buffer
[10] = Cytotoxicity against mouse NIH/3T3 cells assessed as cell viability at 20 umol/L after 2 hrs by MTT assay; format: cell-based, NIH3T3; conditions: read-out: Activity
NIH3T3 [11] = assay: Cytotoxicity against mouse NIH/3T3 cells assessed as cell viability after 2 hrs by MTT assay; format: cell-based; conditions: nih3t3, 2 h
NIH3T3 [12] = assay: as §1; format: cell-based; conditions: nih3t3, 2 h, 80 µM
[13] = Cytotoxicity against mouse NIH/3T3 cells assessed as cell viability at 40 umol/L after 2 hrs by MTT assay; format: cell-based, NIH3T3; conditions: read-out: Activity
[14] = Cytotoxicity against mouse NIH/3T3 cells assessed as cell viability at 10 umol/L after 2 hrs by MTT assay; format: cell-based, NIH3T3; conditions: read-out: Activity
NIH3T3 [15] = assay: Cytotoxicity against mouse NIH/3T3 cells assessed as cell viability at 10 to 100 umol/L after 2 hrs by MTT assay; format: cell-based; conditions: nih3t3, 2 h
[16] = Cytotoxicity against mouse NIH/3T3 cells assessed as cell viability at 0.5 to 10 umol/L after 2 hrs by MTT assay; format: cell-based, NIH3T3; conditions: read-out: Activity

Row | SMILES | IC50 [5] [µM] | inhibition (Saccharomyces cerevisiae) | inhibition (Equus caballus [6]) | inhibition (Equus caballus [7]) | inhibition (Equus caballus [8]) | also measured
1 | CCCC[Te](Br)(Br)c1ccccc1COC | 4 | inactive | 90% | inactive | inactive | Stability [1]: Stable; viability at 2 h [2]: 60%; viability at 2 h, 80 µM [3]: > 50%; inhibition [4]: inactive
2 | CCCC[Se]1(Br)c2ccccc2C[O+]1C.[Br-] (stereo not drawn) | 16 | inactive | 90% | inactive | inactive | Stability [9]: Unstable; viability at 2 h, 20 µM [10]: 75%; inhibition [4]: Active
3 | CCCC[Se]c1ccccc1[C@@H](C)OC | – | – | inactive | – | – | –
4 | CCCC[Te]c1ccccc1[C@@H](C)OC | – | – | inactive | – | – | –
5 | CCCC[Se]1(Br)c2ccccc2[C@H](C)[O+]1C (stereo partly drawn) | 19 | inactive | > 50% | inactive | inactive | –
6 | CCCC[Te]c1ccccc1COC | – | – | inactive | – | – | –
7 | CCCC[Se]1(Br)c2ccccc2[C@@H](C)[O+]1C (stereo partly drawn) | 26 | inactive | > 50% | inactive | inactive | –
8 | CCCC[Se]c1ccccc1[C@H](C)OC | – | – | inactive | – | – | –
9 | CCCC[Te](Br)(Br)c1ccccc1[C@@H](C)OC | 8 | inactive | 90% | inactive | inactive | –
10 | CCCC[Te](Cl)(Cl)c1ccccc1[C@@H](C)OC | 4 | inactive | > 50% | inactive | inactive | –
11 | CCCC[Se]1(Cl)c2ccccc2C[O+]1C.[Cl-] (stereo not drawn) | 35 | inactive | 90% | inactive | inactive | Stability [9]: Unstable; Activity (NIH3T3 [11]): Dose-dependent effect; Activity (NIH3T3 [12]): Non-toxic; viability at 2 h, 40 µM [13]: 40%; viability at 2 h, 10 µM [14]: 50%; inhibition [4]: Active
12 | CCCC[Se]1(Cl)c2ccccc2[C@H](C)[O+]1C (stereo partly drawn) | 32 | inactive | > 50% | inactive | inactive | –
13 | CCCC[Te](Br)(Br)c1ccccc1[C@H](C)OC | 15 | inactive | > 50% | inactive | inactive | –
14 | CCCC[Te](Cl)(Cl)c1ccccc1COC | 3.5 | inactive | 90% | inactive | inactive | Stability [1]: Stable; Activity (NIH3T3 [15]): Non-toxic; viability at 2 h [16]: 60%; inhibition [4]: inactive
15 | CCCC[Se]c1ccccc1COC | – | – | inactive | – | – | –
16 | CCCC[Te](Cl)(Cl)c1ccccc1[C@H](C)OC | 5.5 | inactive | > 50% | inactive | inactive | –
17 | CCCC[Se]1(Cl)c2ccccc2[C@@H](C)[O+]1C (stereo partly drawn) | 34 | inactive | > 50% | inactive | inactive | –
18 | CCCC[Te]c1ccccc1[C@H](C)OC | – | – | inactive | – | – | –
